{"source": "patent US10183082B2", "about": "“PET probes of radiofluorinated carboximidamides for IDO-targeted imaging” (H. LEE MOFFITT CANCER CENTER AND RESEARCH INSTITUTE, INC., priority 2014, dated 2019)", "key": {"MDA-MB-231 cells": {"test_system": "MDA-MB-231 cells", "test": "alamarBlue cell proliferation (cytotoxicity) assay, MDA-MB-231", "format": "cell-based", "conditions": "100 nM, 2 days incubation", "protocol": "(§1) FIGS. 6A-6C. Cell viability study of HuMEC cells, MCA-MB-231 cells, and Hela cells, respectively, incubated with 100 nM of IDO inhibitors. After 2 days of incubation, alamarBlue cell viability reagent was added to cells and the fluorescence intensity (arbitrary fluorescent units) was measured after 3 hours incubation (n=4). Cytotoxicity of four IDO inhibitors toward different cell lines was evaluated with a cell proliferation assay using alamarBlue cell viability reagent. Hela cells were cultured in EMEM medium (ATCC 30-2003) containing 10% FBS, MDA-MB-231 and MCF-7 were cultured in RPMI-1640 Medium containing 10% FBS, while HuMEC cells were cultured in HuMEC medium (ATCC 12752-010). The cell proliferation assay included the following: harvesting of the cells by trypsinization and adding culture media to adjust to 10000 cell/mL; add 0.2 mL of cell suspension to each well and incubated at 37° C. in 5% CO2 atmosphere for 2 days; adding 1 μL of inhibitor solution (0.1 mM in DMSO) into growth media (1 mL) to get growth media w/inhibitor; aspirating spent growth medium from the wells and adding 200 μL of growth media w/ inhibitors and incubating at 37° C. in 5% CO2 atmosphere for 2 days; adding 20 μL of the alamarBlue (Invitrogen) into each well; incubating for addition 3 hours at 37° C. in 5% CO2 atmosphere; and reading the fluorescence intensity of each well with a plate reader (excitation, 544 nm; Emission 595 nm). The fluorescent signal is linear to the number of living cells."}, "Hela cells": {"test_system": "Hela cells", "test": "alamarBlue cell proliferation (cytotoxicity) assay, Hela", "format": "cell-based", "conditions": "100 nM, 2 days incubation", "protocol": "as §1"}, "MCF-7 cells": {"test_system": "MCF-7 cells", "test": "alamarBlue cell proliferation (cytotoxicity) assay, MCF-7", "format": "cell-based", "conditions": "100 nM, 2 days incubation", "protocol": "as §1"}, "IDO": {"target": "IDO (Homo sapiens, UniProt P14902)", "sequence (P14902 whole entry)": "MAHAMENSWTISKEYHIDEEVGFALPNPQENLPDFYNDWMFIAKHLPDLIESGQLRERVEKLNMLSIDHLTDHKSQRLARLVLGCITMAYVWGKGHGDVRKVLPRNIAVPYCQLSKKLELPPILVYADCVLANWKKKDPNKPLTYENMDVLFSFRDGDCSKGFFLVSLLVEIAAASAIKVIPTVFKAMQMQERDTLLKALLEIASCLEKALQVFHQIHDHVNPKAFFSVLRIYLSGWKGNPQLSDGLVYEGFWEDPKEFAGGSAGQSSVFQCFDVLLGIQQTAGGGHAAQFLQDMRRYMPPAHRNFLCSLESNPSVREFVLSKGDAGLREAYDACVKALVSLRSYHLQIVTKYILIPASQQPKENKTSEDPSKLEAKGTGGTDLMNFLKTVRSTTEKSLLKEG", "test": "Inhibition of IFN-γ induced IDO activity in Hela cells", "format": "cell-based", "conditions": "Hela cell lines (FIGS. 7A, 7B)"}, "HuMEC cells": {"test_system": "HuMEC cells", "test": "alamarBlue cell proliferation (cytotoxicity) assay, HuMEC", "format": "cell-based", "conditions": "100 nM, 2 days incubation", "protocol": "as §1"}, "tumor IDO expression": {"target": "T1, tumor IDO expression (Mus musculus, UniProt P28776)", "T1 construct": "from tissue; host or cells: living CLL tumor mice (whole-animal microPET/CT)", "T1 sequence (P28776 whole entry)": "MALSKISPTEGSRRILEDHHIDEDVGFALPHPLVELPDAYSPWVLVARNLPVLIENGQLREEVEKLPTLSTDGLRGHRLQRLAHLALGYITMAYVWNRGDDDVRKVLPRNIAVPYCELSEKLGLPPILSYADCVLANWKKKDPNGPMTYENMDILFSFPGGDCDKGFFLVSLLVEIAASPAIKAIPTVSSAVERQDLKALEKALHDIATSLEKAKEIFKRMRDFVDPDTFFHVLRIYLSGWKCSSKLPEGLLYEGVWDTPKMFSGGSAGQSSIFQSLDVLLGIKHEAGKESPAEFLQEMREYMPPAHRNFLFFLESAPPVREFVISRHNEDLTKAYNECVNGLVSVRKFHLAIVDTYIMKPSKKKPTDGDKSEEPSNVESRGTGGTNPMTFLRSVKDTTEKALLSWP", "test": "microPET/CT imaging of CLL mouse model versus wild-type mouse", "format": "in vivo", "conditions": "imaged 1 hour after i.p. injection of the probe; CLL tumor mice vs wild-type mice", "protocol": "Mice were imaged 1 hour after i.p. injection of the probe."}, "[1]": {"conditions": "via oral administration; cited from earlier work"}}, "data": [{"smiles": "O=C(Nc1nonc1/C(=N/O)Nc1ccc(F)c(Cl)c1)c1ccc(F)cc1", "note": "[IDO6]", "values": [{"measurement": "Cytotoxicity", "setting": "MDA-MB-231 cells", "value": "no cytotoxicity"}, {"measurement": "Cytotoxicity", "setting": "Hela cells", "value": "no cytotoxicity"}, {"measurement": "Cytotoxicity", "setting": "MCF-7 cells", "value": "no cytotoxicity"}, {"measurement": "Inhibition of IDO activity", "setting": "IDO", "value": "inhibited"}, {"measurement": "Cytotoxicity", "setting": "HuMEC cells", "value": "no cytotoxicity"}]}, {"smiles": "Nc1nonc1/C(=N/O)Nc1ccc([18F])c(Cl)c1", "note": "[^18F-IDO5L, [18F] 4-amino-N-(3-chloro-4-fluorophenyl)-N′-hydroxy-1,2,5-oxadiazole-3-carboximidamide]", "values": [{"measurement": "microPET/CT detection of tumor IDO expression", "setting": "tumor IDO expression", "value": "distinguishes IDO-positive chronic lymphocytic leukemia (CLL) mouse model and wild-type mouse in vivo"}]}, {"smiles": "ON=C(Nc1ccc(F)c(Cl)c1)c1nonc1NCCF", "note": "[IDO4-9]", "values": [{"measurement": "Cytotoxicity", "setting": "MDA-MB-231 cells", "value": "no cytotoxicity"}, {"measurement": "Cytotoxicity", "setting": "Hela cells", "value": "no cytotoxicity"}, {"measurement": "Cytotoxicity", "setting": "MCF-7 cells", "value": "no cytotoxicity"}, {"measurement": "Inhibition of IDO activity", "setting": "IDO", "value": "inhibited"}, {"measurement": "Cytotoxicity", "setting": "HuMEC cells", "value": "no cytotoxicity"}]}, {"smiles": "O=C(Cc1ccc(F)cc1)Nc1nonc1/C(=N/O)Nc1ccc(F)c(Cl)c1", "note": "[IDO5]", "values": [{"measurement": "Inhibition of IDO activity", "setting": "IDO", "value": "inhibited"}]}, {"smiles": "Nc1nonc1C(=NO)Nc1ccc(F)c(Cl)c1", "note": "[IDO5L, 4-Amino-N-(3-chloro-4-fluorophenyl)-N′-hydroxy-1,2,5-oxadiazole-3-carboximidamide]", "values": [{"measurement": "Cytotoxicity", "setting": "MDA-MB-231 cells", "value": "no cytotoxicity"}, {"measurement": "t½ (clearance rate)", "setting": "[1]", "value": "< 30", "unit": "min"}, {"measurement": "Cytotoxicity", "setting": "Hela cells", "value": "no cytotoxicity"}, {"measurement": "Cytotoxicity", "setting": "MCF-7 cells", "value": "no cytotoxicity"}, {"measurement": "Inhibition of IDO activity", "setting": "IDO", "value": "inhibited"}, {"measurement": "Cytotoxicity", "setting": "HuMEC cells", "value": "no cytotoxicity"}]}, {"smiles": "O/N=C(\\Nc1ccc(F)c(Cl)c1)c1nonc1NCCO/N=C\\c1ccc(F)cc1", "note": "[IDO7]", "values": [{"measurement": "Inhibition of IDO activity", "setting": "IDO", "value": "inhibited"}]}]}
